Measurements taken from ChEMBL document CHEMBL3351292, “Structure-Based Design and Synthesis of Potent Cyclic Peptides Inhibiting the YAP-TEAD Protein-Protein Interaction” (ACS Med Chem Lett, 2014).
Where a SMILES comes first, the peptide text is derived from it.

Columns and labels:
[1] = biological target: Transcriptional coactivator YAP1/Transcriptional enhancer factor TEF-1 (Homo sapiens, UniProt P28347); assay: Inhibition of YAP/ GST-TEAD1 (unknown origin) interaction by surface plasmon resonance assay; assay type: protein assay
[2] = biological target: Transcriptional coactivator YAP1/Transcriptional enhancer factor TEF-1 (Homo sapiens) (UniProt P46937+P28347); assay: Inhibition of YAP/ GST-TEAD1 (unknown origin) interaction at 50 uM by surface plasmon resonance assay; assay type: protein assay
Chain of Transcriptional coactivator YAP1/Transcriptional enhancer factor TEF-1 (Homo sapiens) (P28347 whole entry, looked up): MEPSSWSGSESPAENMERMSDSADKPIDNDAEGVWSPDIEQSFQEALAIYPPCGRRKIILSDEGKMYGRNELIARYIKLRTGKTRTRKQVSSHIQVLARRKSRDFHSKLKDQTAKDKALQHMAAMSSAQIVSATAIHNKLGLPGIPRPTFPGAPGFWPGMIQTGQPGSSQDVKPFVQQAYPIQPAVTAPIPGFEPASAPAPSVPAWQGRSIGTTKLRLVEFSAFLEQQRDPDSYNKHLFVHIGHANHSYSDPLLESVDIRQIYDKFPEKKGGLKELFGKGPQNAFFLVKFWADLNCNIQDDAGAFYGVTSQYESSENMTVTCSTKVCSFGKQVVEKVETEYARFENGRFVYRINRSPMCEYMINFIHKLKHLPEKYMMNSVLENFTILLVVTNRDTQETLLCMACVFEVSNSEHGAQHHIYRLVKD
Chain of Transcriptional coactivator YAP1/Transcriptional enhancer factor TEF-1 (Homo sapiens) (P46937 whole entry, looked up): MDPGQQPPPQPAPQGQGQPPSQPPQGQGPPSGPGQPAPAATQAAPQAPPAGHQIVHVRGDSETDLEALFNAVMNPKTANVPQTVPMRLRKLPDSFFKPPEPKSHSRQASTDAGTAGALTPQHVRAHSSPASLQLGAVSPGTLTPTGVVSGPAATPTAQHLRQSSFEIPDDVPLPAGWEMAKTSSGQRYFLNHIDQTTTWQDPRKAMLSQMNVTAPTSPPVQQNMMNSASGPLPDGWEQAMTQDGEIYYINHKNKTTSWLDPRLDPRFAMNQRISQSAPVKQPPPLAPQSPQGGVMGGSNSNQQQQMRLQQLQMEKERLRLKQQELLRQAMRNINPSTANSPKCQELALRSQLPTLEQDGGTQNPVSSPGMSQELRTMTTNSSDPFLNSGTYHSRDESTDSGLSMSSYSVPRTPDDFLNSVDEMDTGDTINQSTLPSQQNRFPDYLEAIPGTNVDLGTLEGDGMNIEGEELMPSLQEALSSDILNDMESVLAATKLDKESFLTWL

Chain of Transcriptional coactivator YAP1/Transcriptional enhancer factor TEF-1 (P46937 whole entry): as the sequence (P46937 whole entry, looked up) above
Chain of Transcriptional coactivator YAP1/Transcriptional enhancer factor TEF-1 (P28347 whole entry): as the sequence (P28347 whole entry, looked up) above

| SMILES | IC50 [1] | inhibition [2] |
| --- | --- | --- |
| CSCC[C@H](NC(=O)[C@@H]1CCCN1C(=O)[C@@H](NC(C)=O)C(C)C)C(=O)N[C@H]1CCSSC[C@@H](C(=O)N[C@@H](CCCCN)C(=O)N2CCC[C@H]2C(=O)N2CCC[C@H]2C(=O)N[C@@H](CCC(=O)O)C(N)=O)NC(=O)[C@H](Cc2ccccc2)NC(=O)[C@H](CO)NC(=O)[C@H](C)NC(=O)[C@@H]2CCCN2C(=O)[C@H](CCC(C)C)NC(=O)[C@H](CCCCN)NC(=O)[C@H](CCCNC(=N)N)NC(=O)[C@H](CC(C)C)NC1=O | 620 nM |  |
| CCCCC[C@H](NC(=O)[C@@H]1CCCN1C(=O)[C@@H](NC(C)=O)C(C)C)C(=O)N[C@H]1CCSSC[C@@H](C(=O)N[C@@H](CCCCN)C(=O)N2CCC[C@H]2C(=O)N2CCC[C@H]2C(=O)N[C@@H](CCC(=O)O)C(N)=O)NC(=O)[C@H](Cc2ccccc2)NC(=O)[C@H](CO)NC(=O)[C@H](C)NC(=O)[C@@H]2CCCN2C(=O)[C@H](CCCC)NC(=O)[C@H](CCCCN)NC(=O)[C@H](CCCNC(=N)N)NC(=O)[C@H](CC(C)C)NC1=O | 41 nM |  |
| CSCC[C@H](NC(=O)[C@@H]1CCCN1C(=O)[C@@H](NC(=O)[C@@H](NC(=O)[C@H](CCC(N)=O)NC(=O)[C@@H]1CCCN1C(C)=O)[C@@H](C)O)C(C)C)C(=O)N[C@@H](CCCNC(=N)N)C(=O)N[C@@H](CC(C)C)C(=O)N[C@@H](CCCNC(=N)N)C(=O)N[C@@H](C)C(=O)N[C@@H](CC(C)C)C(=O)N1CCC[C@H]1C(=O)N[C@@H](CC(=O)O)C(=O)N[C@@H](CO)C(=O)N[C@@H](Cc1ccccc1)C(=O)N[C@@H](Cc1ccccc1)C(=O)N[C@@H](CCCCN)C(=O)N1CCC[C@H]1C(=O)N1CCC[C@H]1C(=O)N[C@@H](CCC(=O)O)C(N)=O (Ac-PQTVPMRLRALPDSFFKPPE-NH2) |  | 42% |
| CSCC[C@H](NC(=O)[C@@H]1CCCN1C(=O)[C@@H](NC(=O)[C@@H](NC(=O)[C@H](CCC(N)=O)NC(=O)[C@@H]1CCCN1C(C)=O)[C@@H](C)O)C(C)C)C(=O)N[C@@H](CCCNC(=N)N)C(=O)N[C@@H](CC(C)C)C(=O)N[C@@H](CCCNC(=N)N)C(=O)N[C@@H](CCCCN)C(=O)N[C@@H](C)C(=O)N1CCC[C@H]1C(=O)N[C@@H](CC(=O)O)C(=O)N[C@@H](CO)C(=O)N[C@@H](Cc1ccccc1)C(=O)N[C@@H](Cc1ccccc1)C(=O)N[C@@H](CCCCN)C(=O)N1CCC[C@H]1C(=O)N1CCC[C@H]1C(=O)N[C@@H](CCC(=O)O)C(N)=O (Ac-PQTVPMRLRKAPDSFFKPPE-NH2) |  | 0% |
| CSCC[C@H](NC(=O)[C@@H]1CCCN1C(=O)[C@@H](NC(=O)[C@@H](NC(=O)[C@H](CCC(N)=O)NC(=O)[C@@H]1CCCN1C(C)=O)[C@@H](C)O)C(C)C)C(=O)N[C@@H](CCCNC(=N)N)C(=O)N[C@@H](CC(C)C)C(=O)N[C@@H](CCCNC(=N)N)C(=O)N[C@@H](CCCCN)C(=O)N[C@@H](CC(C)C)C(=O)N[C@@H](C)C(=O)N[C@@H](CC(=O)O)C(=O)N[C@@H](CO)C(=O)N[C@@H](Cc1ccccc1)C(=O)N[C@@H](Cc1ccccc1)C(=O)N[C@@H](CCCCN)C(=O)N1CCC[C@H]1C(=O)N1CCC[C@H]1C(=O)N[C@@H](CCC(=O)O)C(N)=O (Ac-PQTVPMRLRKLADSFFKPPE-NH2) |  | 0% |
| CSCC[C@H](NC(=O)[C@@H]1CCCN1C(=O)[C@@H](NC(=O)[C@@H](NC(=O)[C@H](CCC(N)=O)NC(=O)[C@@H]1CCCN1C(C)=O)[C@@H](C)O)C(C)C)C(=O)N[C@@H](CCCNC(=N)N)C(=O)N[C@@H](CC(C)C)C(=O)N[C@@H](CCCNC(=N)N)C(=O)N[C@@H](CCCCN)C(=O)N[C@@H](CC(C)C)C(=O)N1CCC[C@H]1C(=O)N[C@@H](CC(=O)O)C(=O)N[C@@H](C)C(=O)N[C@@H](Cc1ccccc1)C(=O)N[C@@H](Cc1ccccc1)C(=O)N[C@@H](CCCCN)C(=O)N1CCC[C@H]1C(=O)N1CCC[C@H]1C(=O)N[C@@H](CCC(=O)O)C(N)=O (Ac-PQTVPMRLRKLPDAFFKPPE-NH2) |  | 1.6% |
| CSCC[C@H](NC(=O)[C@@H]1CCCN1C(=O)[C@@H](NC(=O)[C@@H](NC(=O)[C@H](CCC(N)=O)NC(=O)[C@@H]1CCCN1C(C)=O)[C@@H](C)O)C(C)C)C(=O)N[C@@H](CCCNC(=N)N)C(=O)N[C@@H](CC(C)C)C(=O)N[C@@H](CCCNC(=N)N)C(=O)N[C@@H](CCCCN)C(=O)N[C@@H](CC(C)C)C(=O)N1CCC[C@H]1C(=O)N[C@@H](CC(=O)O)C(=O)N[C@@H](CO)C(=O)N[C@@H](C)C(=O)N[C@@H](Cc1ccccc1)C(=O)N[C@@H](CCCCN)C(=O)N1CCC[C@H]1C(=O)N1CCC[C@H]1C(=O)N[C@@H](CCC(=O)O)C(N)=O (Ac-PQTVPMRLRKLPDSAFKPPE-NH2) |  | 4% |
| CSCC[C@H](NC(=O)[C@@H]1CCCN1C(=O)[C@@H](NC(=O)[C@@H](NC(=O)[C@H](CCC(N)=O)NC(=O)[C@@H]1CCCN1C(C)=O)[C@@H](C)O)C(C)C)C(=O)N[C@@H](CCCNC(=N)N)C(=O)N[C@@H](CC(C)C)C(=O)N[C@@H](CCCNC(=N)N)C(=O)N[C@@H](CCCCN)C(=O)N[C@@H](CC(C)C)C(=O)N1CCC[C@H]1C(=O)N[C@@H](CC(=O)O)C(=O)N[C@@H](CO)C(=O)N[C@@H](Cc1ccccc1)C(N)=O (Ac-PQTVPMRLRKLPDSF-NH2) |  | 5.4% |
| CSCC[C@H](NC(=O)[C@@H]1CCCN1C(=O)[C@@H](NC(=O)[C@@H](NC(=O)[C@H](CCC(N)=O)NC(=O)[C@@H]1CCCN1C(C)=O)[C@@H](C)O)C(C)C)C(=O)N[C@@H](CCCNC(=N)N)C(=O)N[C@@H](CC(C)C)C(=O)N[C@@H](CCCNC(=N)N)C(=O)N[C@@H](CCCCN)C(=O)N[C@@H](CC(C)C)C(=O)N1CCC[C@H]1C(=O)N[C@@H](CC(=O)O)C(=O)N[C@@H](CO)C(=O)N[C@@H](Cc1ccccc1)C(=O)N[C@@H](C)C(=O)N[C@@H](CCCCN)C(=O)N1CCC[C@H]1C(=O)N1CCC[C@H]1C(=O)N[C@@H](CCC(=O)O)C(N)=O (Ac-PQTVPMRLRKLPDSFAKPPE-NH2) |  | 9.4% |
| CSCC[C@H](NC(=O)[C@@H]1CCCN1C(=O)[C@@H](NC(=O)[C@@H](NC(=O)[C@H](CCC(N)=O)NC(=O)[C@@H]1CCCN1C(C)=O)[C@@H](C)O)C(C)C)C(=O)N[C@@H](CCCNC(=N)N)C(=O)N[C@@H](CC(C)C)C(=O)N[C@@H](CCCNC(=N)N)C(=O)N[C@@H](CCCCN)C(=O)N[C@@H](CC(C)C)C(=O)N1CCC[C@H]1C(=O)N[C@@H](CC(=O)O)C(=O)N[C@@H](CO)C(=O)N[C@@H](Cc1ccccc1)C(=O)N[C@@H](Cc1ccccc1)C(N)=O (Ac-PQTVPMRLRKLPDSFF-NH2) |  | 13% |
| CSCC[C@H](NC(=O)[C@@H]1CCCN1C(=O)[C@@H](NC(=O)[C@@H](NC(=O)[C@H](CCC(N)=O)NC(=O)[C@@H]1CCCN1C(C)=O)[C@@H](C)O)C(C)C)C(=O)N[C@@H](CCCNC(=N)N)C(=O)N[C@@H](CC(C)C)C(=O)N[C@@H](CCCNC(=N)N)C(=O)N[C@@H](CCCCN)C(=O)N[C@@H](CC(C)C)C(=O)N1CCC[C@H]1C(=O)N[C@@H](CC(=O)O)C(=O)N[C@@H](CO)C(=O)N[C@@H](Cc1ccccc1)C(=O)N[C@@H](Cc1ccccc1)C(=O)N[C@@H](C)C(=O)N1CCC[C@H]1C(=O)N1CCC[C@H]1C(=O)N[C@@H](CCC(=O)O)C(N)=O (Ac-PQTVPMRLRKLPDSFFAPPE-NH2) |  | 42% |
| CSCC[C@H](NC(=O)[C@@H]1CCCN1C(=O)[C@@H](NC(=O)[C@@H](NC(=O)[C@H](CCC(N)=O)NC(=O)[C@@H]1CCCN1C(C)=O)[C@@H](C)O)C(C)C)C(=O)N[C@@H](CCCNC(=N)N)C(=O)N[C@@H](CC(C)C)C(=O)N[C@@H](CCCNC(=N)N)C(=O)N[C@@H](CCCCN)C(=O)N[C@@H](CC(C)C)C(=O)N1CCC[C@H]1C(=O)N[C@@H](CC(=O)O)C(=O)N[C@@H](CO)C(=O)N[C@@H](Cc1ccccc1)C(=O)N[C@@H](Cc1ccccc1)C(=O)N[C@@H](CCCCN)C(N)=O (Ac-PQTVPMRLRKLPDSFFK-NH2) |  | 14% |
| CSCC[C@H](NC(=O)[C@@H]1CCCN1C(=O)[C@@H](NC(=O)[C@@H](NC(=O)[C@H](CCC(N)=O)NC(=O)[C@@H]1CCCN1C(C)=O)[C@@H](C)O)C(C)C)C(=O)N[C@@H](CCCNC(=N)N)C(=O)N[C@@H](CC(C)C)C(=O)N[C@@H](CCCNC(=N)N)C(=O)N[C@@H](CCCCN)C(=O)N[C@@H](CC(C)C)C(=O)N1CCC[C@H]1C(=O)N[C@@H](CC(=O)O)C(=O)N[C@@H](CO)C(=O)N[C@@H](Cc1ccccc1)C(=O)N[C@@H](Cc1ccccc1)C(=O)N[C@@H](CCCCN)C(=O)N[C@@H](C)C(=O)N1CCC[C@H]1C(=O)N[C@@H](CCC(=O)O)C(N)=O (Ac-PQTVPMRLRKLPDSFFKAPE-NH2) |  | 47% |
| CSCC[C@H](NC(=O)[C@@H]1CCCN1C(=O)[C@@H](NC(=O)[C@@H](NC(=O)[C@H](CCC(N)=O)NC(=O)[C@@H]1CCCN1C(C)=O)[C@@H](C)O)C(C)C)C(=O)N[C@@H](CCCNC(=N)N)C(=O)N[C@@H](CC(C)C)C(=O)N[C@@H](CCCNC(=N)N)C(=O)N[C@@H](CCCCN)C(=O)N[C@@H](CC(C)C)C(=O)N1CCC[C@H]1C(=O)N[C@@H](CC(=O)O)C(=O)N[C@@H](CO)C(=O)N[C@@H](Cc1ccccc1)C(=O)N[C@@H](Cc1ccccc1)C(=O)N[C@@H](CCCCN)C(=O)N1CCC[C@H]1C(N)=O (Ac-PQTVPMRLRKLPDSFFKP-NH2) |  | 42% |
| CSCC[C@H](NC(=O)[C@@H]1CCCN1C(=O)[C@@H](NC(=O)[C@@H](NC(=O)[C@H](CCC(N)=O)NC(=O)[C@@H]1CCCN1C(C)=O)[C@@H](C)O)C(C)C)C(=O)N[C@@H](CCCNC(=N)N)C(=O)N[C@@H](CC(C)C)C(=O)N[C@@H](CCCNC(=N)N)C(=O)N[C@@H](CCCCN)C(=O)N[C@@H](CC(C)C)C(=O)N1CCC[C@H]1C(=O)N[C@@H](CC(=O)O)C(=O)N[C@@H](CO)C(=O)N[C@@H](Cc1ccccc1)C(=O)N[C@@H](Cc1ccccc1)C(=O)N[C@@H](CCCCN)C(=O)N1CCC[C@H]1C(=O)N1CCC[C@H]1C(N)=O (Ac-PQTVPMRLRKLPDSFFKPP-NH2) |  | 52% |
| CC(=O)N[C@@H](CCCNC(=N)N)C(=O)N[C@@H](CC(C)C)C(=O)N[C@@H](CCCNC(=N)N)C(=O)N[C@@H](CCCCN)C(=O)N[C@@H](CC(C)C)C(=O)N1CCC[C@H]1C(=O)N[C@@H](CC(=O)O)C(=O)N[C@@H](CO)C(=O)N[C@@H](Cc1ccccc1)C(=O)N[C@@H](Cc1ccccc1)C(=O)N[C@@H](CCCCN)C(=O)N1CCC[C@H]1C(=O)N1CCC[C@H]1C(=O)N[C@@H](CCC(=O)O)C(N)=O (Ac-RLRKLPDSFFKPPE-NH2) |  | 12% |
